{
  "source": "patent US5773569A",
  "about": "(Affymax Technologies N.V., priority 1995, dated 1998)",
  "key": {"FDCP-1/muER cells": {"test_system": "FDCP-1/muER cells", "assay": "Peptide-induced initiation of cell cycle measured by DNA content", "assay_type": "cell-based, murine", "conditions": "10 U/ml; ten hours postinduction; medium control 15%", "method": "F. Cellular response kinetics: Peptide-Induced Initiation of Cell Cycle Measured By DNA Content\n1. Experimental Protocol: FDCP-1/muER cells were grown to stationery phase ≈3.0×10^6 cells/ml. […] Three million cells were collected at the following time points: 0, 6, 8, 10, and 12 hr. (see, FIG. 15). Cells were washed twice in cold PBS and fixed by resuspending the cell pellet in 100 μl of cold PBS followed by 900 μl of cold 70% ethanol. Cells were stained with 50 μg/ml of propidium iodine and fluorescence was measured on FACS Scan Flow cytometer. The percentage of cells in each phase was measured using the SOBR model of CelIFIT software, by Becton Dickinson."}, "[1]": {"test_system": "polycythemic exhypoxic mice (59Fe incorporation)", "assay": "Polycythemic exhypoxic mouse bioassay", "assay_type": "in vivo", "conditions": "subcutaneous", "method": "J. Polycythemic Exhypoxic Mouse Bioassay\nFemale BDF1 mice (18-20 gms) are subjected to a conditioning cycle (in hypobaric chambers) of 18 hrs. at 0.40±0.02 atm. and 6 hrs. at ambient pressure for a period of 14 days.\nMice are maintained at ambient pressure for 72 hrs prior to administration of r-HuEPO or test samples. Test samples or r-HuEPO standard are diluted for injection into conditioned mice. The vehicle consists of: PBS containing 0.1% BSA (w/v). For each dilution, 0.5 ml is administered subcutaneously into each of 10 mice. ^59 Fe is administered 48 hrs. later. Blood samples are taken 48 hrs. following administration of ^59 Fe. Hematocrits and radioactivity measurements are determined for each sample. Dose range and results (two different assays) are set forth in Table 22 and FIGS. 17A-17C, infra."}, "murine bone marrow cells": {"test_system": "murine bone marrow cells", "assay": "Colony assay, murine bone marrow", "assay_type": "cell-based", "conditions": "EPO", "method": "(§1) G. Colony Assay: Murine Bone Marrow and Human Peripheml Blood Colony Assay\n(§2) A ten milliliter sample of peripheral blood was obtained from a healthy individual in a standard sterile heparin vacutainer tube. Murine bone marrow was obtained from the femurs of approximately 10 mice per experiment. All reagents were obtained from Stem Cell Technologies Inc. (Vancouver, Canada).\n(§3) a. Experimental Protocol: Briefly, a nucleated cell count was performed to establish the number and concentration of nucleated cells in the original sample. In the case of peripheral blood, the sample is subjected to centrifugation through a Ficoll-Hypaque (1.077 g per ml) gradient at 400 g for 30 minutes at room temperature. Mononuclear cells at the interface of the Ficoll-Hypaque solution are carefully removed and diluted to a total volume of about 10 ml. The cells obtained from murine bone marrow or human peripheral blood were collected by centrifugation and the supernatant was decanted. The pelleted cells were resuspended in fresh medium and subjected to collection as described above. The washed cells were diluted in Iscove's medium/2% fetal bovine serum to the following concentration for plating:\nNormal marrow: 1×10^5 light density cells\n(§4) Cells were added to methyl cellulose per directions of the manufacturer. […] Equivalent cell numbers were plated in \"Complete\" methylcellulose medium to assess maximal colony formation. A control plate was run with each assay minus EPO and peptide to determine background colony formation. Colonies were scored after both 10 days and 18 days of incubation."}, "[2]": {"test_system": "human peripheral blood mononuclear cells", "assay": "Colony assay on a human peripheral blood specimen", "assay_type": "cell-based", "method": "as §1, §2, §3\nNormal blood: 4×10^5 light density cells\nas §4"}, "[3]": {"conditions": "scored 2/23/94, EPO (METHOCULT)"}},
  "data": [
    {"substance": "EPO: Erythropoietin, glycoprotein hormone with 165 amino acids; recombinant standard", "values": [
      {"measurement": "cells in S phase", "setting": "FDCP-1/muER cells", "value": "approximately 45%"},
      {"measurement": "LOG MEAN", "setting": "[1]; dose 0.025 U", "value": 1.65},
      {"measurement": "LOG MEAN", "setting": "[1]; dose 0.050 U", "value": 2.74},
      {"measurement": "LOG MEAN", "setting": "[1]; dose 0.100 U", "value": 3.28},
      {"measurement": "BFU-E colony-forming cell numbers", "setting": "murine bone marrow cells; Table 14 (1/28/94), 2/10/94", "value": 5},
      {"measurement": "CFU-E colony-forming cell numbers", "setting": "murine bone marrow cells; Table 14 (1/28/94), 2/10/94", "value": 23},
      {"measurement": "CFU-GM colony-forming cell numbers", "setting": "murine bone marrow cells; Table 14 (1/28/94), 2/10/94", "value": 3},
      {"measurement": "BFU-E colony-forming cell numbers", "setting": "murine bone marrow cells; Table 14 (1/28/94), 2/21/94", "value": 30},
      {"measurement": "CFU-E colony-forming cell numbers", "setting": "murine bone marrow cells; Table 14 (1/28/94), 2/21/94", "value": 0},
      {"measurement": "CFU-GM colony-forming cell numbers", "setting": "murine bone marrow cells; Table 14 (1/28/94), 2/21/94", "value": 3},
      {"measurement": "BFU-E colony-forming cell numbers", "setting": "murine bone marrow cells; Table 15 (2/21/94), 3/1/94", "value": 3},
      {"measurement": "CFU-E colony-forming cell numbers", "setting": "murine bone marrow cells; Table 15 (2/21/94), 3/1/94", "value": 3},
      {"measurement": "CFU-GM colony-forming cell numbers", "setting": "murine bone marrow cells; Table 15 (2/21/94), 3/1/94", "value": "> 10"},
      {"measurement": "CFU-E colony-forming cell numbers", "setting": "murine bone marrow cells; Table 15 (2/21/94), 3/14/94", "value": 0},
      {"measurement": "CFU-GM colony-forming cell numbers", "setting": "murine bone marrow cells; Table 15 (2/21/94), 3/14/94", "value": 26},
      {"measurement": "MBFU-E colony-forming cell numbers", "setting": "murine bone marrow cells; Table 15 (2/21/94), 3/14/94", "value": 0},
      {"measurement": "PBFU-E colony-forming cell numbers", "setting": "murine bone marrow cells; Table 15 (2/21/94), 3/14/94", "value": 10},
      {"measurement": "CFU-E", "setting": "[2]; scored 2/23/94, 3 U/ml", "value": 7},
      {"measurement": "MBFU-E", "setting": "[2]; scored 2/23/94, 3 U/ml", "value": 7},
      {"measurement": "CFU-E", "setting": "[2]; [3]", "value": 11},
      {"measurement": "MBFU-E", "setting": "[2]; [3]", "value": 25},
      {"measurement": "CFU-E", "setting": "[2]; scored 3/4/94, 3 U/ml", "value": 4},
      {"measurement": "CFU-GM", "setting": "[2]; scored 3/4/94, 3 U/ml", "value": 3},
      {"measurement": "MBFU-E", "setting": "[2]; scored 3/4/94, 3 U/ml", "value": 7},
      {"measurement": "PBFU-E", "setting": "[2]; scored 3/4/94, 3 U/ml", "value": 7},
      {"measurement": "CFU-E", "setting": "[2]; scored 3/4/94, EPO (METHOCULT)", "value": 1},
      {"measurement": "CFU-GM", "setting": "[2]; scored 3/4/94, EPO (METHOCULT)", "value": 9},
      {"measurement": "MBFU-E", "setting": "[2]; scored 3/4/94, EPO (METHOCULT)", "value": 11},
      {"measurement": "PBFU-E", "setting": "[2]; scored 3/4/94, EPO (METHOCULT)", "value": 13}
    ]}
  ]
}
